How the values were obtained:
[1] = target: T1, bovine serum albumin (BSA) (Bos taurus, UniProt P02769); assay: intrinsic tryptophan fluorescence quenching titration (apparent kD); supported by CD spectra and CD melting (ΔTm +[…] °C); type: binding
T1 construct: gene ALB

[2] = target: T1, bovine serum albumin (BSA); assay: intrinsic tryptophan fluorescence quenching titration (apparent kD); supported by CD spectra and CD melting (ΔTm −[…] °C); type: binding

T1 sequence (P02769 25-607): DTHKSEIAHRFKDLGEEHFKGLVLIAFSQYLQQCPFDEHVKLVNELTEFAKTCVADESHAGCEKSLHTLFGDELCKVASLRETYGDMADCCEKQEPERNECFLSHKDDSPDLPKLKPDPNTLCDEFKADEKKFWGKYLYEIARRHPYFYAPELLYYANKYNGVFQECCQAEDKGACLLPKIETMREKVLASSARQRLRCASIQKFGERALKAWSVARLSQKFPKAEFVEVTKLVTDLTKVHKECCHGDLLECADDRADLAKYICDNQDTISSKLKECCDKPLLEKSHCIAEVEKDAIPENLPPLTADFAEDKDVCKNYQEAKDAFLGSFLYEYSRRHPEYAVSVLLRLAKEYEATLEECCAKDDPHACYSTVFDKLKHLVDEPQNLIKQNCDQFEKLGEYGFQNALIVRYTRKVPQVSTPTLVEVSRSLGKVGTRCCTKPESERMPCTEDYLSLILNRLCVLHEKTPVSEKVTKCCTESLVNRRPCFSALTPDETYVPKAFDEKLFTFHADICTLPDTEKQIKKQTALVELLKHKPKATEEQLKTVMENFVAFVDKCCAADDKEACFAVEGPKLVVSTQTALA

Row | SMILES | Kd [1] [nM] | Kd [2] [nM]
1 | CCCCOC(=O)c1c(N)oc2ccc(O)c(-c3ccc([N+](=O)[O-])cc3)c12 [BF1] | 28.4 ± 10.1 | 
2 | CCCCOC(=O)c1c(N)oc2c(-c3ccc([N+](=O)[O-])cc3)c3c(C(=O)OCCCC)c(N)oc3cc12 [BDF1] |  | 142 ± 64.6
